Assay results published in patent publication US12258338B2, “Modulators of the integrated stress response pathway” (EVOTEC INTERNATIONAL GMBH, priority 2019, dated 2025).

What was measured:
[1] = molecular target: T1, human ERG potassium channel (hERG) (Homo sapiens, UniProt Q12809); test: hERG channel tail current recording using in vitro Rapid ICE (automated patch-clamp, QPatch HTX); type: cell-based; details: Table 26
T1 construct: expressed in transfected cells; host or cells: HEK293, stably transfected, tetracycline-inducible promoter
Experimental: Protocol—Measure of the Effect on hERG Channel by Tail Current Recording Using In Vitro Rapid ICE
The potency of the example compounds in inhibiting human ERG potassium channel (hERG) tail current was assessed in a recombinant HEK293 cell line stably transfected with hERG cDNA under an inducible promoter, using Rapid ICE (rapid ion channel electrophysiology) assay. Rapid ICE is an automated patch-clamp assay utilizing the QPatch HTX system (Sophion Bioscience A/S). Briefly, inducible HEK hERG cells were cultivated in minimum essential medium supplemented with 10% FBS, 1% non-essential amino acids, 1% sodium pyruvate, 2 mM 1-glutamine, 15 μg/mL blasticidin, and 100 μg/mL hygromycin. hERG channel expression induction was obtained by adding 10 μg/mL tetracycline for 24, 48, or 72 h before recordings.
On the day of the experiment, cells were detached with TrypLE and prepared to be loaded on the instrument. Cells were resuspended in 7 mL of Serum-Free Media containing 25 mM Hepes and soybean trypsin inhibitor and immediately placed in the cell storage tank of the machine. The composition of the extracellular buffer was (mM): NaCl 137, KCl 4, CaCl2 1.8, MgCl2 1.0, d-glucose 10, N-2-hydroxyethylpiperazine-N′-2-ethanesulfonic acid (HEPES) 10, pH 7.4 with 1 M NaOH. The composition of the intracellular solution was (mM): KCl 130, MgCl2 1.0, ethylene glycol-bis(β-aminoethyl ether)-N,N,N′,N′-tetraacetic acid (EGTA) 5, MgATP 5, HEPES 10, pH 7.2 with 1 M KOH. The voltage protocol included the following steps: step from −80 to −50 mV for 200 ms, +20 mV for 4.8 s, step to −50 mV for 5 s, then step to the holding potential of −80 mV. Compounds were dissolved in DMSO and diluted in extracellular buffer to achieve final test concentrations (0.3, 3, and 30 μM) in 0.3% DMSO. The voltage protocol was run and recorded continuously during the experiment. The vehicle, corresponding to 0.3% DMSO in extracellular buffer was then applied for 3 min, followed by the test substance in triplicate. The standard combined exposure time was 5 min. The average of tail current amplitude values recorded from four sequential voltage pulses was used to calculate for each cell the effect of the test substance by calculating the residual current (% control) compared with vehicle pretreatment. Data were reported as % inhibition for each concentration tested, and IC50 values were estimated using QPatch software. At least two cells were tested, and even more if results diverged.

ATF4 = test: HEK-ATF4 High Content Imaging assay (prevention of Tunicamycin induced ISR; ATF4 signal ratio between nucleus and cytoplasm); type: cell-based; details: Homo sapiens; Wild-type HEK293 cells, Tunicamycin induced ISR, 6 h; read-out: IIEK-ATF4 Activity
Experimental: HEK-ATF4 High Content Imaging Assay
Example compounds were tested in the HEK-ATF4 High Content Imaging assay to assess their pharmacological potency to prevent Tunicamycin induced ISR. Wild-type HEK293 cells were plated in 384-well imaging assay plates at a density of 12,000 cells per well in growth medium (containing DMEM/F12, 10% FBS, 2 mM L-Glutamine, 100 U/mL Penicillin-100 μg/mL Streptomycin) and incubated at 37° C., 5% CO2. 24 h later, the medium was changed to 50 μL assay medium per well (DMEM/F12, 0.3% FBS, 2 mM L-Glutamine, 100 U/mL Penicillin-100 μg/mL Streptomycin). Example compounds were serially diluted in DMSO, spotted into intermediate plates and prediluted with assay medium containing 3.3 μM Tunicamycin to give an 11-fold excess of final assay concentration. In addition to the example compound testing area, the plates also contained multiples of control wells for assay normalization purposes, wells containing Tunicamycin but no example compounds (High control), as well as wells containing neither example compound nor Tunicamycin (Low control). The assay was started by transferring 5 μL from the intermediate plate into the assay plates, followed by incubation for 6 h at 37° C., 5% CO2. Subsequently, cells were fixed (4% PFA in PBS, 20 min at r.t.) and submitted to indirect ATF4 immunofluorescence staining (primary antibody rabbit anti ATF4, clone D4B8, Cell Signaling Technologies; secondary antibody Alexa Fluor 488 goat anti-rabbit IgG (H+L), Thermofisher Scientific). Nuclei were stained using Hoechst dye (Thermofisher Scientific), and plates were imaged on an Opera Phenix High Content imaging platform equipped with 405 nm and 488 nm excitation. Finally, images were analyzed using script based algorithms. The main readout HEK-ATF4 monitored the ATF4 signal ratio between nucleus and cytoplasm. Tunicamycin induced an increase in the overall ATF4 ratio signal, which was prevented by ISR modulating example compounds. In addition, HEK-CellCount readout was derived from counting the number of stained nuclei corresponding to healthy cells. This readout served as an internal toxicity control.

T1 sequence (Q12809 whole entry): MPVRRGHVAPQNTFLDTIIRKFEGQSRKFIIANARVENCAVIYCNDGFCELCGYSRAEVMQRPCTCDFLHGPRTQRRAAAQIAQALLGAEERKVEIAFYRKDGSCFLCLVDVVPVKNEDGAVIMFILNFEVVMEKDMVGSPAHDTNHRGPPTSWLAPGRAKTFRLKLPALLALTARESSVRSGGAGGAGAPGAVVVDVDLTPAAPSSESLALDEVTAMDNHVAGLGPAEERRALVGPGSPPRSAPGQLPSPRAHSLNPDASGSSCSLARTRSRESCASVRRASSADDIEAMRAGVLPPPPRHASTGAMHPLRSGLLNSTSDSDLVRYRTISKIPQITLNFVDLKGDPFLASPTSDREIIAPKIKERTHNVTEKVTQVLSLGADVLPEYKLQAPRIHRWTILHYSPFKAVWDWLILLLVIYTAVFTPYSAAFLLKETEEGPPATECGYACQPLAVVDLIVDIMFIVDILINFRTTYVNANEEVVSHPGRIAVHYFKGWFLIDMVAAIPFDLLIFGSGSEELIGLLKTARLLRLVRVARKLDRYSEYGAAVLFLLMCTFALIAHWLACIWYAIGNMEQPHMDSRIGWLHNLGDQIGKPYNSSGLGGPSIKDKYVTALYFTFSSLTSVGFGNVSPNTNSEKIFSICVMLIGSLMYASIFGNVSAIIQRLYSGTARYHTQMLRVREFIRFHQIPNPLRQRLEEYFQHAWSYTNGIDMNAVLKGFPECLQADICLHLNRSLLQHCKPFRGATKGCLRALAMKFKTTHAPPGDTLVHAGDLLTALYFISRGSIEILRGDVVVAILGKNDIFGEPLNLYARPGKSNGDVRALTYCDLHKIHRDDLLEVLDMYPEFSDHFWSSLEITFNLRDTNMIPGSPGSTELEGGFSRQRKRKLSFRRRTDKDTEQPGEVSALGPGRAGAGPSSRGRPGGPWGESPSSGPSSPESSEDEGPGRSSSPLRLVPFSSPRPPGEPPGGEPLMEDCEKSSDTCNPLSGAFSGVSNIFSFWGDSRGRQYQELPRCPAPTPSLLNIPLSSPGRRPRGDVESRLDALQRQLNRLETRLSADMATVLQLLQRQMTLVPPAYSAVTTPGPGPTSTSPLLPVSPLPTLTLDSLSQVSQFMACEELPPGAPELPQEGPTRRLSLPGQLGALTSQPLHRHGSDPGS

Row | IC50 (ATF4) | SMILES | IC50 [1]
1 | 1 to 500 nM | O=C(COc1ccc(C(F)F)c(Cl)c1)N[C@H]1CC[C@H](c2nnc(OCCOC(F)(F)F)o2)NC1 [Example 113, 2-[3-chloro-4-(difluoromethyl)phenoxy]-N-[(3S,6R)-6-{5-[2-(trifluoromethoxy)ethoxy]-1,3,4-oxadiazol-2-yl}piperidin-3-yl]acetamide] | 1000 to 5000 nM
2 | 1 to 500 nM | O=C(COc1ccc(Cl)c(F)c1)N[C@H]1CC[C@H](c2nnc(-c3ccc(Cl)cn3)o2)NC1 [Example 53, 2-(4-chloro-3-fluorophenoxy)-N-[(3S,6R)-6-[5-(5-chloropyridin-2-yl)-1,3,4-oxadiazol-2-yl]piperidin-3-yl]acetamide] | 1000 to 5000 nM
3 | 1 to 500 nM | O=C(COc1ccc(Cl)c(Cl)c1)N[C@H]1CC[C@H](c2nnc(OCCOC3CC3)o2)NC1 [Example 86, N-[(3S,6R)-6-[5-(2-cyclopropoxyethoxy)-1,3,4-oxadiazol-2-yl]piperidin-3-yl]-2-(3,4-dichlorophenoxy)acetamide] | 1000 to 5000 nM
4 | 1 to 500 nM | O=C(COc1ccc(Cl)c(F)c1)N[C@H]1CC[C@H](c2nnc(OCCO[C@H]3CC3(F)F)o2)NC1 (single isomer, unassigned) [Example 103] | > 5000 nM

The remaining lines, values behind:

Row | SMILES | IC50 (ATF4) | IC50 [1]
5 | O=C(COc1ccc(Cl)c(F)c1)N[C@H]1CC[C@H](c2nnc(C3CC(OC4CC4)C3)o2)NC1 (stereo partly drawn) [Example 59, 2-(4-chloro-3-fluorophenoxy)-N-[(3S,6R)-6-[5-(3-cyclopropoxycyclobutyl)-1,3,4-oxadiazol-2-yl]piperidin-3-yl]acetamide] | 500 to 2000 nM | > 5000 nM
6 | CCN1C[C@H](NC(=O)COc2ccc(Cl)c(F)c2)CC[C@H]1c1nnc(-c2ccc(Cl)cc2)o1 [Example 47, 2-(4-chloro-3-fluorophenoxy)-N-[(3R,6S)-6-[5-(4-chlorophenyl)-1,3,4-oxadiazol-2-yl]-1-ethylpiperidin-3-yl]acetamide] | 1 to 500 nM | 1 to 1000 nM
7 | O=C(COc1ccc(Cl)c(F)c1)N[C@H]1CC[C@H](c2nnc(-c3ccc(Cl)cc3)o2)NC1=O (single isomer, unassigned) [Example 108] | 2000 to 15000 nM | 1 to 1000 nM
8 | CC(F)(F)CCOc1nnc([C@H]2CC[C@H](NC(=O)COc3ccc(Cl)c(F)c3)CN2)o1 [Example 65, 2-(4-chloro-3-fluorophenoxy)-N-[(3S,6R)-6-[5-(3,3-difluorobutoxy)-1,3,4-oxadiazol-2-yl]piperidin-3-yl]acetamide] | 500 to 2000 nM | 1000 to 5000 nM
9 | O=C(COc1ccc(Cl)c(F)c1)N[C@@H]1CC[C@@H](c2nnc(N3CC(OC(F)(F)F)C3)o2)NC1 [Example 43] | 1 to 500 nM | > 5000 nM
10 | O=C(COc1ccc(Cl)c(F)c1)N[C@H]1CC[C@H](c2nnc(OCCO[C@@H]3CC3(F)F)o2)NC1 (single isomer, unassigned) [Example 102] | 500 to 2000 nM | 1000 to 5000 nM
11 | O=C(COc1ccc(Cl)c(F)c1)N[C@H]1CC[C@H](c2nnc(-c3ccc(Cl)c(F)c3)o2)NC1 [Example 54, 2-(4-chloro-3-fluorophenoxy)-N-[(3S,6R)-6-[5-(4-chloro-3-fluorophenyl)-1,3,4-oxadiazol-2-yl]piperidin-3-yl]acetamide] | 1 to 500 nM | 1 to 1000 nM
12 | CC(C)CCOc1nnc([C@H]2CC[C@H](NC(=O)COc3ccc(Cl)c(F)c3)CN2)o1 [Example 70, 2-(4-chloro-3-fluorophenoxy)-N-[(3S,6R)-6-[5-(3-methylbutoxy)-1,3,4-oxadiazol-2-yl]piperidin-3-yl]acetamide] | 1 to 500 nM | 1000 to 5000 nM
13 | COc1cc(OCC(=O)N[C@H]2CC[C@H](c3nnc(OCCOC(F)(F)F)o3)NC2)ccc1C(F)(F)F [Example 15, 2-[3-methoxy-4-(trifluoromethyl)phenoxy]-N-[(3S,6R)-6-{5-[2-(trifluoromethoxy)ethoxy]-1,3,4-oxadiazol-2-yl}piperidin-3-yl]acetamide] | 1 to 500 nM | > 5000 nM
